Source: publication PMC5761851, “Application of a phenotypic drug discovery strategy to identify biological and chemical starting points for inhibition of TSLP production in lung epithelial cells” (PLoS ONE, 2018)
“And” between values parts separate entries of the source, which are not always exact repeats. Equal values may be shown once. Read-outs that look alike come from different tables or passages of the source.

Legend:
dopamine transporter = molecular target: T1, dopamine transporter (Homo sapiens, UniProt Q01959); assay: BioPrint panel: dopamine transporter (h) (antagonist); assay type: binding; conditions: 1 micromolar, read-out: percentage of inhibition of activity
T1 construct: purchased Eurofins Pharma Discovery Services (KinaseProfiler; Cerep BioPrint panel)
T1 sequence (Q01959 whole entry): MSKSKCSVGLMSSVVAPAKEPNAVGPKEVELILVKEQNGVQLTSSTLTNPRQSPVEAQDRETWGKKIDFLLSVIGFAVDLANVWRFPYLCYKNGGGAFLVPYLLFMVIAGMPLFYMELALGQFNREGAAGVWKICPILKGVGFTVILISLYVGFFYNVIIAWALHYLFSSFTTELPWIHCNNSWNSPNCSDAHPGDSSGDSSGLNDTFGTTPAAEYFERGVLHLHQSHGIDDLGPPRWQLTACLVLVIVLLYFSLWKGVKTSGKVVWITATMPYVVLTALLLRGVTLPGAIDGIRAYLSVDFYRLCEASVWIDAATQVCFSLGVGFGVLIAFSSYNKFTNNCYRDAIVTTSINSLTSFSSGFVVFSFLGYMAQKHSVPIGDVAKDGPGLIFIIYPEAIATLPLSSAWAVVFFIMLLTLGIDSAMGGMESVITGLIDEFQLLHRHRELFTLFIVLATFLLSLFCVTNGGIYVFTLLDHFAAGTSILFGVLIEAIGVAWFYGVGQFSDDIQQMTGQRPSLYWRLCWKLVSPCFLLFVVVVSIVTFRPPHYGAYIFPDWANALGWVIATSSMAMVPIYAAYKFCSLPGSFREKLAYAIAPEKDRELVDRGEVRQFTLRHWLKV
Text: (§1) Supplement pone.0189247.s004.xlsx, sheet "Bioprint Selectivity Panel" | column: %

Fyn = molecular target: T2, Fyn (Homo sapiens, UniProt P06241); assay: BioPrint panel: Fyn kinase (h); assay type: biochemical; conditions: 1 micromolar, read-out: percentage of inhibition of activity
T2 construct: purchased Eurofins Pharma Discovery Services (KinaseProfiler; Cerep BioPrint panel)
T2 sequence (P06241 whole entry): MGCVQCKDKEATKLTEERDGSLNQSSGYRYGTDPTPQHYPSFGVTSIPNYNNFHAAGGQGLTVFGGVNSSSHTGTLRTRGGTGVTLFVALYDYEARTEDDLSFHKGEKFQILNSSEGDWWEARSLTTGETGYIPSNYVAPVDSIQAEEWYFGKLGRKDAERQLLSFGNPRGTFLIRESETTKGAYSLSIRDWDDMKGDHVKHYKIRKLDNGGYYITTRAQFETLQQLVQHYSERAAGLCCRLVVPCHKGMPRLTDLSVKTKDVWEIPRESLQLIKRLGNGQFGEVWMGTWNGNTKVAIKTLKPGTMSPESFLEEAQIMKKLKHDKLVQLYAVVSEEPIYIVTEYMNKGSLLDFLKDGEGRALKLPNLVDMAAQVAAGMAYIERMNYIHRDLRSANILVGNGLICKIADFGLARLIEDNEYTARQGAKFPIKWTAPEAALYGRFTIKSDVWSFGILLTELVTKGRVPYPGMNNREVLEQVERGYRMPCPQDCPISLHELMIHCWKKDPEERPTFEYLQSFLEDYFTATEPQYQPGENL
Text: as §1

FP = molecular target: T3, FP (Homo sapiens, UniProt P43088); assay: BioPrint panel: FP (h) (agonist); assay type: binding; conditions: 1 micromolar, read-out: percentage of inhibition of activity
T3 construct: purchased Eurofins Pharma Discovery Services (KinaseProfiler; Cerep BioPrint panel)
T3 sequence (P43088 whole entry): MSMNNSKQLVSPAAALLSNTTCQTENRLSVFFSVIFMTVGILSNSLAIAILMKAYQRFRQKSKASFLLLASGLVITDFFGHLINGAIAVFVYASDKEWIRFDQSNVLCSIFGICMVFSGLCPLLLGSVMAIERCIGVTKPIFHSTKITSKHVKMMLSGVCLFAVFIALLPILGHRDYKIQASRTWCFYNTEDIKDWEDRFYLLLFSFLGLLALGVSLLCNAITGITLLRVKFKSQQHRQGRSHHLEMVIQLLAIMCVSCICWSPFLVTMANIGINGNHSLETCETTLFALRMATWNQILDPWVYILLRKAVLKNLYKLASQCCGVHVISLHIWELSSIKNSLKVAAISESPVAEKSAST
Text: as §1

alpha 2B = molecular target: T4, alpha 2B (Homo sapiens, UniProt P18089); assay: BioPrint panel: alpha 2B (h) (antagonist); assay type: binding; conditions: 1 micromolar, read-out: percentage of inhibition of activity
T4 construct: purchased Eurofins Pharma Discovery Services (KinaseProfiler; Cerep BioPrint panel)
Text: as §1

M1 = molecular target: T5, M1 (Homo sapiens, UniProt P11229); assay: BioPrint panel: M1 (h) (antagonist); assay type: binding; conditions: 1 micromolar, read-out: percentage of inhibition of activity
T5 construct: purchased Eurofins Pharma Discovery Services (KinaseProfiler; Cerep BioPrint panel)
Text: as §1

ZAP-70 = molecular target: T6, ZAP-70 (Homo sapiens, UniProt P43403); assay: BioPrint panel: ZAP70 kinase (h); assay type: biochemical; conditions: 1 micromolar, read-out: percentage of inhibition of activity
T6 construct: purchased Eurofins Pharma Discovery Services (KinaseProfiler; Cerep BioPrint panel)
T6 sequence (P43403 1-619): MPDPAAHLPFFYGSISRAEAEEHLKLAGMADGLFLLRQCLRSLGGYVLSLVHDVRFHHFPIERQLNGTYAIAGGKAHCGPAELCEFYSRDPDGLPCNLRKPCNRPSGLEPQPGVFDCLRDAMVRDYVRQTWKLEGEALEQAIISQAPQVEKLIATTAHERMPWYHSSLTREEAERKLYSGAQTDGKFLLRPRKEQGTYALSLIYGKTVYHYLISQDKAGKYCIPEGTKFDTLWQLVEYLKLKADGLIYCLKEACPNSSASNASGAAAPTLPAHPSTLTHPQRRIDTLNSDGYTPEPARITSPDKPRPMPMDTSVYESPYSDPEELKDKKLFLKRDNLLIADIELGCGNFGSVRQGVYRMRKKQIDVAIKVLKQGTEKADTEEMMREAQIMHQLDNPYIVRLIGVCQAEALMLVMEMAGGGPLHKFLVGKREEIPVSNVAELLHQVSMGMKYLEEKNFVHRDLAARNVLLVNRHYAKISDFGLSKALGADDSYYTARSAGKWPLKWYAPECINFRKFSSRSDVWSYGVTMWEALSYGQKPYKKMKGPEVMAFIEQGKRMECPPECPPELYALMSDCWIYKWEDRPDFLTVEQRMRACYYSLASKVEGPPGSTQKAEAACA
Text: as §1

MC1 = molecular target: T7, MC1 (Mus musculus, UniProt Q01727); assay: BioPrint panel: MC1 (agonist); assay type: binding; conditions: 1 micromolar, read-out: percentage of inhibition of activity
T7 construct: purchased Eurofins Pharma Discovery Services (KinaseProfiler; Cerep BioPrint panel)
Text: as §1

CCK1 (CCKA) = molecular target: T8, CCK1 (CCKA) (Homo sapiens, UniProt P32238); assay: BioPrint panel: CCK1 (CCKA) (h) (agonist); assay type: binding; conditions: 1 micromolar, read-out: percentage of inhibition of activity
T8 construct: purchased Eurofins Pharma Discovery Services (KinaseProfiler; Cerep BioPrint panel)
Text: as §1

MC3 = molecular target: T9, MC3 (Homo sapiens, UniProt P41968); assay: BioPrint panel: MC3 (h) (agonist); assay type: binding; conditions: 1 micromolar, read-out: percentage of inhibition of activity
T9 construct: purchased Eurofins Pharma Discovery Services (KinaseProfiler; Cerep BioPrint panel)
T9 sequence (P41968 whole entry): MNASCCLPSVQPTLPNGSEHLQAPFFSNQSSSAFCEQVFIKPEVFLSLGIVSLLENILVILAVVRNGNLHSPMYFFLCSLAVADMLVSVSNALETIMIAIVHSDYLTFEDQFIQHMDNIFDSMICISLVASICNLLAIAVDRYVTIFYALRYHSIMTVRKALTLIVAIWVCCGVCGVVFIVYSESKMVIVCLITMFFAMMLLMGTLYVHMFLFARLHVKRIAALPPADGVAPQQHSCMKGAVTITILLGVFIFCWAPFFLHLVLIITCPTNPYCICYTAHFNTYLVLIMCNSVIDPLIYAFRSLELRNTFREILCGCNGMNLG
Text: as §1

PDE5 = molecular target: T10, PDE5 (Homo sapiens, UniProt O76074); assay: BioPrint panel: PDE5; assay type: biochemical
T10 construct: Eurofins Pharma Discovery Services (contract assay service)
Description: General selectivity profiling was performed at Eurofins Pharma Discovery Services using the BioPrint® panel and reference database. The panel included 104 binding assays (non-peptide, peptide and nuclear receptors, ion channels and amine transporters) and 41 cell based and enzyme assays (including 10 kinases, 9 proteases and 5 phosphodiesterases) (S4 Table). More than 70% were human targets. Compound 4 was tested at a concentration of 1 μM in duplicate (10 μM for P-gp and CYP enzymes). The resulting bioactivity fingerprint was compared with a database of >2,500 BioPrint marketed drugs and reference compounds. IC50 values for selected activities were further characterized at 8 concentrations in duplicate.

GABAB(1b) = molecular target: T11, GABAB(1b) (Homo sapiens, UniProt Q9UBS5); assay: BioPrint panel: GABAB(1b) (h) (antagonist); assay type: binding; conditions: 1 micromolar, read-out: percentage of inhibition of activity
T11 construct: purchased Eurofins Pharma Discovery Services (KinaseProfiler; Cerep BioPrint panel)
T11 sequence (Q9UBS5 1-844 isoform Q9UBS5-2): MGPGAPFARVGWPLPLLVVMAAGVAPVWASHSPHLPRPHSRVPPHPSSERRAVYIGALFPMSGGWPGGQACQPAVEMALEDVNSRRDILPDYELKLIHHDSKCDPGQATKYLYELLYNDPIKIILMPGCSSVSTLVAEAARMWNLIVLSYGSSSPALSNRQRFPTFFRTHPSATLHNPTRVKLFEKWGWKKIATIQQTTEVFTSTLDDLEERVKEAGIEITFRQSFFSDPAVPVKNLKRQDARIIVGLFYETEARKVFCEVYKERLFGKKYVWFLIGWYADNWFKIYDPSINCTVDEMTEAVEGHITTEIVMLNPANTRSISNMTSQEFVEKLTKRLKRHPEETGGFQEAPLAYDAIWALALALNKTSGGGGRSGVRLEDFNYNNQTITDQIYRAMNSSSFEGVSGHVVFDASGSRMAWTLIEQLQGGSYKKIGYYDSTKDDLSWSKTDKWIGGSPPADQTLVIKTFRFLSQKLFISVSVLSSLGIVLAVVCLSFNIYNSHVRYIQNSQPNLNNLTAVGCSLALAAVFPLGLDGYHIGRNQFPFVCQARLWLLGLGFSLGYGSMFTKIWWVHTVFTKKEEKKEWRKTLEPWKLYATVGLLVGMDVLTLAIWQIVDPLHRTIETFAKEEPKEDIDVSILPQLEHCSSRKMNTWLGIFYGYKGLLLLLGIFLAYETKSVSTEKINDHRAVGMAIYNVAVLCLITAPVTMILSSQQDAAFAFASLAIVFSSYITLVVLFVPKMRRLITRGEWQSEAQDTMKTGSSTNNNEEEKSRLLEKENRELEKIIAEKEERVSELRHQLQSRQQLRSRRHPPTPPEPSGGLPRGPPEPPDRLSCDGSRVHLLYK
Text: as §1

5-HT2A = molecular target: T12, 5-HT2A (Homo sapiens, UniProt P28223); assay: BioPrint panel: 5-HT2A (h) (agonist); assay type: binding; conditions: 1 micromolar, read-out: percentage of inhibition of activity
T12 construct: purchased Eurofins Pharma Discovery Services (KinaseProfiler; Cerep BioPrint panel)
Text: as §1

PDE4D2 = molecular target: T13, PDE4D2 (Homo sapiens, UniProt Q08499); assay: BioPrint panel: PDE4D2 (h); assay type: biochemical; conditions: 1 micromolar, read-out: percentage of inhibition of activity
T13 construct: purchased Eurofins Pharma Discovery Services (KinaseProfiler; Cerep BioPrint panel)
T13 sequence (Q08499 303-809 limits assumed): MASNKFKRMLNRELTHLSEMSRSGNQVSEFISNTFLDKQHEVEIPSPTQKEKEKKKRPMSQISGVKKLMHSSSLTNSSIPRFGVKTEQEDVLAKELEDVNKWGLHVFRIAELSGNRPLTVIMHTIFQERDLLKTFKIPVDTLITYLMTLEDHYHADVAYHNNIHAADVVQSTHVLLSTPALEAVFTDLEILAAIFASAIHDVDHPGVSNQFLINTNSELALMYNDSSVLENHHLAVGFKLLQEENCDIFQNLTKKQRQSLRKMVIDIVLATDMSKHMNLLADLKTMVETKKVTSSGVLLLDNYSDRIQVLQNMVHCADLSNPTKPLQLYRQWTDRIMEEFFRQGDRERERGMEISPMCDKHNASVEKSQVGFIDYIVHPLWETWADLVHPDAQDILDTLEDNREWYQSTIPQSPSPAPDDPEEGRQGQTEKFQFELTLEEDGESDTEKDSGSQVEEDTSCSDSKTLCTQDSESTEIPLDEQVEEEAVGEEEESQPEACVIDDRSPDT
Text: as §1

alpha 2A = molecular target: T14, alpha 2A (Homo sapiens, UniProt P08913); assay: BioPrint panel: alpha 2A (h) (antagonist); assay type: binding; conditions: 1 micromolar, read-out: percentage of inhibition of activity
T14 construct: purchased Eurofins Pharma Discovery Services (KinaseProfiler; Cerep BioPrint panel)
Text: as §1

Abl = molecular target: T15, Abl (Homo sapiens, UniProt P00519); assay: BioPrint panel: Abl kinase (h); assay type: biochemical; conditions: 1 micromolar, read-out: percentage of inhibition of activity
T15 construct: purchased Eurofins Pharma Discovery Services (KinaseProfiler; Cerep BioPrint panel)
Text: as §1

[1] = tested on: glycine (strychnine-insensitive); assay: BioPrint panel: glycine (strychnine-insensitive)(antagonist); assay type: binding; conditions: 1 micromolar
Text: as §1

motilin = molecular target: T16, motilin (Homo sapiens, UniProt O43193); assay: BioPrint panel: motilin (h) (agonist); assay type: binding; conditions: 1 micromolar, read-out: percentage of inhibition of activity
T16 construct: purchased Eurofins Pharma Discovery Services (KinaseProfiler; Cerep BioPrint panel)
T16 sequence (O43193 whole entry): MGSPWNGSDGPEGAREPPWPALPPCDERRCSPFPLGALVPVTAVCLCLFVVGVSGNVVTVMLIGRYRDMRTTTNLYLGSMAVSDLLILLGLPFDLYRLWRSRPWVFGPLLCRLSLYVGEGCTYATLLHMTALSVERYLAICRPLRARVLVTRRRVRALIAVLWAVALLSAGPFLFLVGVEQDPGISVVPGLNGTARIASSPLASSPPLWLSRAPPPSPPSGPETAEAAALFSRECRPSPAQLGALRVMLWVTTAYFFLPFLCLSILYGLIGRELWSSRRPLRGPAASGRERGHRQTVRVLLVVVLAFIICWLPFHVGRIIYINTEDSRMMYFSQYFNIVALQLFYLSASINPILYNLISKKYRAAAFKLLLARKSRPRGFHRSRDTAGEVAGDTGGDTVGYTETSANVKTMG
Text: as §1

A3 = molecular target: T17, A3 (Homo sapiens, UniProt P0DMS8); assay: BioPrint panel: A3 (h) (agonist); assay type: binding; conditions: 1 micromolar, read-out: percentage of inhibition of activity
T17 construct: purchased Eurofins Pharma Discovery Services (KinaseProfiler; Cerep BioPrint panel)
T17 sequence (P0DMS8 whole entry): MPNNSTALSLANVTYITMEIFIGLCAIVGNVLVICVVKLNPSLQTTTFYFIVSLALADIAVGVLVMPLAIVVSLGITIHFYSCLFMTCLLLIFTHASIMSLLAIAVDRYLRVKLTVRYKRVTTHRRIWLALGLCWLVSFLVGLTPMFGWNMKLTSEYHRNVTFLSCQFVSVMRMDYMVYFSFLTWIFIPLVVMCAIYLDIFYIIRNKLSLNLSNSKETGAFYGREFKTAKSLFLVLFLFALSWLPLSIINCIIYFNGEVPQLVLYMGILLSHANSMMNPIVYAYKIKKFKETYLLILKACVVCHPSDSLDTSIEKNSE
Text: as §1

beta 1 = molecular target: T18, beta 1 (Homo sapiens, UniProt P08588); assay: BioPrint panel: beta 1 (h) (agonist); assay type: binding; conditions: 1 micromolar, read-out: percentage of inhibition of activity
T18 construct: purchased Eurofins Pharma Discovery Services (KinaseProfiler; Cerep BioPrint panel)
Text: as §1

Cl- channel (GABA-gated) = assay: BioPrint panel: Cl- channel (GABA-gated) (antagonist); assay type: binding; conditions: 1 micromolar
Text: as §1

MT1 (ML1A) = molecular target: T19, MT1 (ML1A) (Homo sapiens, UniProt P48039); assay: BioPrint panel: MT1 (ML1A) (h) (agonist); assay type: binding; conditions: 1 micromolar, read-out: percentage of inhibition of activity
T19 construct: purchased Eurofins Pharma Discovery Services (KinaseProfiler; Cerep BioPrint panel)
T19 sequence (P48039 whole entry): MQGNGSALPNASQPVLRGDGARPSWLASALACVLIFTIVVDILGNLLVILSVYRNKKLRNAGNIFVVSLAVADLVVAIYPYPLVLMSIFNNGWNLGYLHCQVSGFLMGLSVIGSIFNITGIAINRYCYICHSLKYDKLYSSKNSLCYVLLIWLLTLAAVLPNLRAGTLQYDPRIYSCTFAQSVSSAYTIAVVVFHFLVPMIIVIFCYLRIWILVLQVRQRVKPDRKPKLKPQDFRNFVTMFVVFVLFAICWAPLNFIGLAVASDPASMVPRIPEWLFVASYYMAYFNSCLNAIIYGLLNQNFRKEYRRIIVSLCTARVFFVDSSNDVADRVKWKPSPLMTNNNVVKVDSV
Text: as §1

N muscle-type = assay: BioPrint panel: N muscle-type (h) (antagonist); assay type: binding, human; conditions: 1 micromolar
Text: as §1

5-HT1D = molecular target: T20, 5-HT1D (Rattus norvegicus, UniProt P28565); assay: BioPrint panel: 5-HT1D (agonist); assay type: binding; conditions: 1 micromolar, read-out: percentage of inhibition of activity
T20 construct: purchased Eurofins Pharma Discovery Services (KinaseProfiler; Cerep BioPrint panel)
Text: as §1

Syk = Syk (Homo sapiens, UniProt P43405); assay: Enzymatic Syk kinase activity assay; assay type: biochemical
ERalpha = molecular target: T21, ERalpha (Homo sapiens, UniProt P03372); assay: BioPrint panel: ERalpha (h) (agonist fluoligand); assay type: binding; conditions: 1 micromolar, read-out: percentage of inhibition of activity
T21 construct: purchased Eurofins Pharma Discovery Services (KinaseProfiler; Cerep BioPrint panel)
T21 sequence (P03372 whole entry): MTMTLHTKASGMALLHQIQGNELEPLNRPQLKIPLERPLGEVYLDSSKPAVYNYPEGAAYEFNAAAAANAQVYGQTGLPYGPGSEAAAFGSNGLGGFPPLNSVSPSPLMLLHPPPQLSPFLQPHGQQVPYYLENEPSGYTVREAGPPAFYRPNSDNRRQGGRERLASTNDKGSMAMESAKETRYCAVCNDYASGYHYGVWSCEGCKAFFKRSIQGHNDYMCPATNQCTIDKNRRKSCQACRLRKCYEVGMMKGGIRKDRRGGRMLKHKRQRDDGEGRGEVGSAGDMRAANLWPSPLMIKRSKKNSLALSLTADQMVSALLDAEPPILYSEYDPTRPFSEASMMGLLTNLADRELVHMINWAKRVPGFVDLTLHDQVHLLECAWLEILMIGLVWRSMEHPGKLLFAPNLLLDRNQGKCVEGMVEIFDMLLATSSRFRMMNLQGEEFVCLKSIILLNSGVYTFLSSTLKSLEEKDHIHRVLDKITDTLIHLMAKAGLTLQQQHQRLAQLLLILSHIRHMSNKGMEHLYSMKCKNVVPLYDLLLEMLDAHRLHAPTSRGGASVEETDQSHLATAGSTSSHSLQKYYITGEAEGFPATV
Text: as §1

H4 = molecular target: T22, H4 (Homo sapiens, UniProt Q9H3N8); assay: BioPrint panel: H4 (h) (agonist); assay type: binding; conditions: 1 micromolar, read-out: percentage of inhibition of activity
T22 construct: purchased Eurofins Pharma Discovery Services (KinaseProfiler; Cerep BioPrint panel)
Text: as §1

[2] = tested on: Ca2+ channel (L, verapamil site); assay: BioPrint panel: Ca2+ channel (L, verapamil site) (antagonist); assay type: binding; conditions: 1 micromolar
Text: as §1

ETB = molecular target: T23, ETB (Homo sapiens, UniProt P24530); assay: BioPrint panel: ETB (h) (agonist); assay type: binding; conditions: 1 micromolar, read-out: percentage of inhibition of activity
T23 construct: purchased Eurofins Pharma Discovery Services (KinaseProfiler; Cerep BioPrint panel)
Text: as §1

NMDA = assay: BioPrint panel: NMDA (antagonist); assay type: binding; conditions: 1 micromolar
Text: as §1

ACE = molecular target: T24, ACE (Homo sapiens, UniProt P12821); assay: BioPrint panel: ACE (h); assay type: biochemical; conditions: 1 micromolar
T24 construct: purchased Eurofins Pharma Discovery Services (KinaseProfiler; Cerep BioPrint panel)
Text: as §1

Question: Which inhibition at 1 µM (dopamine transporter) does the source give for `Cn1cc(-c2cccc(-c3nc(C(=O)NC4C5CC6CC4CC(O)(C6)C5)c(N)nc3N)c2)cn1` (stereo not drawn) [compound 4] here?
Answer: Its inhibition at 1 µM is 7.5%.

Question: What about the inhibition at 1 µM (Fyn) of the same compound?
Answer: The inhibition at 1 µM was -9.2%.

Question: And the inhibition at 1 µM (FP)?
Answer: The inhibition at 1 µM was 4.8%.

Question: And the inhibition at 1 µM (alpha 2B)?
Answer: The inhibition at 1 µM was -6.6%.

Question: What about the inhibition at 1 µM (M1) of the same compound?
Answer: The inhibition at 1 µM was -16.7%.

Question: What about the inhibition at 1 µM (ZAP-70) of the same compound?
Answer: Its inhibition at 1 µM is 5.5%.

Question: And the inhibition at 1 µM (MC1)?
Answer: Its inhibition at 1 µM is -2.3%.

Question: And the inhibition at 1 µM (CCK1 (CCKA))?
Answer: Its inhibition at 1 µM is -0.1%.

Question: What about the inhibition at 1 µM (MC3) of the same compound?
Answer: Its inhibition at 1 µM is 8.8%.

Question: And the inhibition at 1 µM (PDE5; 1 μM, read-out: inhibition of PDE5)?
Answer: Its inhibition at 1 µM is 61%.

Question: And the inhibition at 1 µM (PDE5; 1 micromolar, PDE5 (h) (non-selective), read-out: percentage of inhibition of activity)?
Answer: Its inhibition at 1 µM is 61.5%.

Question: And the IC50 (PDE5; dose response, duplicate, read-out: Inhibition of indicated activity (IC50, μM): PDE5)?
Answer: The IC50 was 0.92 µM.

Question: What about the inhibition at 1 µM (GABAB(1b)) of the same compound?
Answer: Its inhibition at 1 µM is 15.4%.

Question: What about the inhibition at 1 µM (5-HT2A) of the same compound?
Answer: Its inhibition at 1 µM is 2.4%.

Question: What about the inhibition at 1 µM (PDE4D2) of the same compound?
Answer: Its inhibition at 1 µM is 3%.

Question: And the inhibition at 1 µM (alpha 2A)?
Answer: Its inhibition at 1 µM is 6.2%.

Question: What about the inhibition at 1 µM (Abl) of the same compound?
Answer: Its inhibition at 1 µM is -4.6%.

Question: And the “percentage of inhibition of activity” value [1]?
Answer: Its value is -5.3%.

Question: And the inhibition at 1 µM (motilin)?
Answer: Its inhibition at 1 µM is -4.9%.

Question: And the inhibition at 1 µM (A3)?
Answer: Its inhibition at 1 µM is 3.5%.

Question: What about the inhibition at 1 µM (beta 1) of the same compound?
Answer: Its inhibition at 1 µM is -1.8%.

Question: What about the “percentage of inhibition of activity” value (Cl- channel (GABA-gated)) of the same compound?
Answer: The value was 0.5%.

Question: And the inhibition at 1 µM (MT1 (ML1A))?
Answer: Its inhibition at 1 µM is 4.2%.

Question: What about the “percentage of inhibition of activity” value (N muscle-type) of the same compound?
Answer: The value was -17.1%.

Question: What about the inhibition at 1 µM (5-HT1D) of the same compound?
Answer: Its inhibition at 1 µM is -8.1%.

Question: What about the IC50 (Syk; geometric mean, read-out: Activity in reference biochemical assay (IC50, μM) (95% CI) Syk) of the same compound?
Answer: Its IC50 is 11.8 µM.

Question: And the IC50 (Syk; individual values, read-out: Biochemical activity (IC50, mM) (Syk))?
Answer: The IC50 was 12.2 µM and 11.4 µM.

Question: What about the inhibition at 1 µM (ERalpha) of the same compound?
Answer: The inhibition at 1 µM was -10.3%.

Question: What about the inhibition at 1 µM (H4) of the same compound?
Answer: The inhibition at 1 µM was -1.7%.

Question: What about the “percentage of inhibition of activity” value [2] of the same compound?
Answer: Its value is 6.4%.

Question: What about the inhibition at 1 µM (ETB) of the same compound?
Answer: The inhibition at 1 µM was -6.7%.

Question: And the “percentage of inhibition of activity” value (NMDA)?
Answer: Its value is -6.8%.

Question: And the “percentage of inhibition of activity” value (ACE)?
Answer: Its value is “INTER”.
